Assays:
[1] = system: constitutively activated STAT3 in Colo357-FG cells; test: Western blot of phosphorylated STAT3 (Tyr705) and total STAT3 in Colo357-FG cells (FIG. 1); format: cell-based, human
Description: Cultured pancreatic cancer cells treated with different times and concentrations of WP compounds or DMSO (solvent) were lysed in lysis buffer and equal amounts of protein extracts were fractionated by sodium dodecyl sulfate polyacrylamide gel electrophoresis and transferred to Hybond-P membranes. Membranes were immuno-blotted using phospho-specific STAT3, total STAT3, Bcl-xL, survivin, PARP, caspase-8 and GADPH antibodies. The primary antibodies were visualized with goat anti-rabbit or goat anti-mouse peroxidase-conjugated antibodies using an enhanced […] (ECF) system and a Molecular Dynamics Storm PhosphorImager.

[2] = system: U87-MG cells; conditions: cited from earlier work
[3] = system: U373-MG cells; conditions: cited from earlier work
[4] = system: subcutaneous malignant glioma xenografts; conditions: cited from earlier work
[5] = system: human malignant glioma U87-MG and U373-MG cells; conditions: cited from earlier work
[6] = system: STAT3; test: Inhibition of STAT3 phosphorylation, WP1193 compared with WP1066 (FIG. 34); format: cell-based

SMILES | inhibition of constitutively activated STAT3 (phospho-Tyr705 versus total STAT3) [1] | IC50 [2] [µM] | increase in potency over that of AG490 ([2]; versus AG490) [fold] | IC50 [3] [µM] | increase in potency over that of AG490 ([3]; versus AG490) | phosphorylated STAT3 levels in excised tumors (immunohistochemical analysis) ([4]; 3 weeks after the final WP1066 injection, versus control group) | growth of subcutaneous malignant glioma xenografts ([4]; mice, systemic intraperitoneal administration, 30-day follow-up period) | Bax, c-myc, Bcl-XL, Mcl-1 and apoptosis [5] | inhibition of STAT3 phosphorylation relative to WP1066 [6]
C[C@H](NC(=O)/C(C#N)=C/c1cccc(Br)n1)c1ccccc1 [WP1066] | Inhibition of constitutively activated STAT3 | 5.6 | 18 | 3.7 | eightfold | remained inhibited | significantly (P<0.001) inhibited the growth | activated Bax, suppressed the expression of c-myc, Bcl-XL and Mcl-1, and induced apoptosis | 
N#C/C(=C\c1cccc(Br)n1)C(=O)N[C@H](c1ccccc1)C1CC1 [WP1193, (E)-3-(6-bromopyridin-2-yl)-2-cyano-N-((S)-cyclopropyl(phenyl)methyl)acrylamide] | Inhibition of constitutively activated STAT3 |  |  |  |  |  |  |  | more potently than WP1066
